{"source": "patent US12168003B2", "about": "“Selective inhibition of T follicular helper cells for treatment of autoimmune disorders” (priority 2019, dated 2024)", "assay_type_in_all_cases": "in vivo, mouse", "key": {"[1]": {"tested_on": "TH17-differentiated 2D2 T cells", "assay": "Passive EAE with TH17-differentiated 2D2 T cells pre-treated with 4EGI-1", "conditions": "2D2 T cells pre-treated with 20 μM 4EGI-1 for 1 h in vitro", "method": "TH17 2D2 T cells were removed from activation and treated with vehicle or 20 μM 4EGI-1 for 1 h at 37° C. in vitro prior to transfer of 9.3×10^6 2 D2 T cells i.p. per recipient. Mice were given 200 ng pertussis toxin i.p. […] following T cell injection. Animals were monitored daily for 35 days and scored on a scale of 0-5 as described above. At day 35, TFH-like (ICOS^high) Vα3.2 cells were identified from the spinal cord."}, "EAE mice": {"tested_on": "EAE mice", "assay": "Active EAE (MOG33-55/CFA), 4EGI-1 from initiation of EAE", "method": "Ten-week old female mice purchased from Jackson Laboratory were subcutaneously injected at two sites with 100 μL […] emulsified in CFA (Hooke Labs) per flank. On the same day, 6 hours later, and on day 2, mice were injected with 100 ng of pertussis toxin in 200 μL i.p. Mice were monitored daily and scored on a scale of 0-5 where 0, no disease; 1, tail paralysis; 2; hind limb paresis; 3, complete hind limb paralysis; 4, front limb weakness and hind limb paralysis, and 5, moribund state. When stated, mice were either administered 25 mg/kg 4EGI-1 or vehicle i.p. from d 0 to 21 following EAE induction or 75 mg/kg 4EGI-1 or vehicle i.p. from day 12 to 21 following EAE induction and randomization. LFB-H images imported into FIJI underwent color deconvolution to isolate myelin staining. A binary image was generated and % myelination of the spinal cord was calculated. Spinal cords from mice not subjected to EAE were set to 100% and all other samples from the same group were normalized. H&E images imported into FIJI underwent color deconvolution to isolate hematoxylin staining. A binary image was generated and % infiltration of the spinal cord of was calculated. Five-micron sections of paraffin embedded tissue were stained with Akoya Biosciences® Opal™ multiplex automation kit reagents unless stated otherwise. Automated staining was performed on Leica BondRX® autostainer. The protocol was performed according to manufacturers' instructions with primary antibodies to CD19 (Cell Signaling Technology, cat #90176) and CD4 (Cell Signaling Technology, cat #25229). Briefly, all slides underwent sequential epitope retrieval with Leica Biosystems epitope retrieval 2 solution (EDTA based, pH9, Cat. AR9640), primary and secondary antibody incubation and tyramide signal amplification (TSA) with Opal® fluorophores Op690 and Op520. Primary and secondary antibodies were removed during epitope retrieval steps while fluorophores remain covalently attached to the epitope. Semi-automated image acquisition was performed on a Vectra® Polaris multispectral imaging system. After whole slide scanning at 10× the tissue was manually outlined to select fields for multispectral imaging at 20×. Phenochart® software from Akoya Biosciences was used for spectral unmixing of the whole slide scans. Scans were imported into QuPath and representative images were exported into FIJI."}, "[2]": {"tested_on": "eIF4E cap-dependent protein synthesis in the CD4+ T cell compartment", "assay": "SUnSET protein synthesis assay in CD4+ T cells of mice dosed with 4EGI-1", "conditions": "25 mg/kg daily", "method": "Determination of eIF4E activity in vivo should compare untreated to treated animals. Specimens may include single-cell suspensions of splenocytes isolated using Percoll gradient purification followed by plating in X-VIVO media (Lonza) containing 5% human AB serum (Sigma) and Glutamax at 37° C. for one hour and subjected to SuNSET assay for 10 minutes to determine active protein synthesis rates according to manufacturer instructions (AG Scientific) and shown in FIGS. 10A and 14B.\nMice were immunized with 100 μg OVA/Alum and 7 days following, spleens were harvested and single-cell suspensions were generated. Splenocytes were incubated in mouse T cell media (detailed in Silencing of eIF4E in OT2 T cells by lentivirus transduction) with 0-25 μM 4EGI-1 for 4 hours at 37° C. Cells were stained with a live/dead viability marker and then for extracellular expression of CD4, CXCR5, PD-1, or ICOS or intranuclear expression of BCL6. For the SuNSET assay, cells from above were incubated 37° C. with 10 μg/mL puromycin for 10 minutes. Control samples were incubated with puromycin and 100 μg/mL cycloheximide. Cells were incubated with a live/dead viability marker and extracellular stain prior to fixation and permeabilization (BD Biosciences Fixation/Permeabilization Solution) and intracellular staining with anti-puromycin followed by anti-mouse IgG2a antibody conjugated to Alexa Fluor 488."}}}
{"compound": "O=C(O)C(Cc1ccccc1[N+](=O)[O-])=NNc1nc(-c2ccc(Cl)c(Cl)c2)cs1", "note": "(mixture of isomers) [4EGI-1]", "values": [{"measurement": "TFH-like 2D2 T cells (ICOShigh) in the spinal cord", "setting": "[1]", "value": "reduced by half"}, {"measurement": "development of passive EAE disease in recipient mice", "setting": "[1]", "value": "did not develop disease"}, {"measurement": "clinical EAE severity (daily clinical score)", "setting": "EAE mice; 25 mg/kg daily i.p., day 0 to 21", "value": "significantly reduced"}, {"measurement": "disease-associated weight loss", "setting": "EAE mice; 25 mg/kg daily i.p., from EAE induction", "value": "significantly reduced"}, {"measurement": "ELFs (ectopic lymphoid follicles) in spinal cord", "setting": "EAE mice; 25 mg/kg daily, EAE mice", "value": "substantially reduced"}, {"measurement": "numbers of CD4+ T and B cells in the spinal cords", "setting": "EAE mice; 25 mg/kg daily, EAE mice, immunofluorescence", "value": "strongly reduced"}, {"measurement": "level of myelination of the spinal cord (normal = 100%)", "setting": "EAE mice; 25 mg/kg daily, Luxol fast blue", "value": "~98", "unit": "%"}, {"measurement": "CD4+ T cells producing IFN-γ in spinal cord and brain", "setting": "EAE mice; 25 mg/kg daily, day 21 of EAE", "value": "almost abolished"}, {"measurement": "CD4+ T cells producing IL-17A in spinal cord and brain", "setting": "EAE mice; 25 mg/kg daily, day 21 of EAE", "value": "almost abolished"}, {"measurement": "reduction of CD4+ T cells in the brain", "setting": "EAE mice; 25 mg/kg daily, day 21 of EAE", "value": 3, "unit": "fold"}, {"measurement": "reduction of CD4+ T cells in the spinal cord", "setting": "EAE mice; 25 mg/kg daily, day 21 of EAE", "value": 3, "unit": "fold"}, {"measurement": "reduction of TFH cells in the spleen", "setting": "EAE mice; 25 mg/kg daily, day 21 of EAE", "value": 3, "unit": "fold"}, {"measurement": "tolerability", "setting": "[2]; mice", "value": "well tolerated"}, {"measurement": "inhibition of eIF4E cap-dependent protein synthesis in the CD4+ T cell compartment", "setting": "[2]; uninfected mice, SUnSET (FIG. 1A)", "value": "approximately 30%"}]}
